In patent publication US4572908A, “Dihydropyridines” (Pfizer Inc., priority 1982, dated 1986) one finds IC50 data, which are given here for 35 molecules.

The test system of the experiment is rat aorta. The experiment can be described thus: inhibition of calcium-induced contraction (change in tension) of spirally cut strips of rat aorta in K+ 45 mM saline. The class given is cell-based. The settings on record: 0.75 h, 45 millimolar potassium, 2 millimolar calcium, 45 minutes, read-out: IC50 (molar concentration required to reduce the response by 50%). As to the method: The ability of the compounds to inhibit the movement of calcium into the cell is shown by their effectiveness in reducing the response of isolated heart tissue to an increase in calcium ion concentration in vitro. The test is performed by mounting spirally cut strips of rat aorta with one end fixed and the other attached to a force transducer. The tissue is immersed in a bath of physiological saline solution containing potassium ions at a concentration of 45 millimolar and no calcium. Calcium chloride is added to the bath with a pipette to give a final calcium ion concentration of 2 millimolar. The change in tension caused by the resulting contraction of the tissue is noted. The bath is drained and replaced with fresh saline solution and, after 45 minutes, the test is repeated with the particular compound under test present in the saline solution. The concentration of compound required to reduce the response by 50% (IC50) is recorded.
The molar concentrations of the compounds required to reduce the response by 50% in the test specified on pages 16-17 are given below (1M=1 gm.Mole/liter).

`CCOC(=O)C1=C(COCCNc2nc(-c3ccccn3)cc(=O)[nH]2)NC(C)=C(C(=O)OC)C1c1cccc(Cl)c1Cl` (centres unmarked) [Example 44]: the IC50 was 15.8 nM. With `CCOC(=O)C1=C(COCCNc2ccc(S(=O)(=O)N3CCOCC3)cn2)NC(C)=C(C(=O)OC)C1c1cccc(Cl)c1Cl` (centres unmarked) [Example 45], the IC50 worked out at 1.09 nM. Regarding `CCOC(=O)C1=C(COCCNc2ccc(S(=O)(=O)N3CCCCC3)cn2)NC(C)=C(C(=O)OC)C1c1cccc(Cl)c1Cl` (centres unmarked) [Example 46], the IC50 came to 3.01 nM. The result for `CCOC(=O)C1=C(COCCNc2ccc(S(=O)(=O)N(C)C)cn2)NC(C)=C(C(=O)OC)C1c1cccc(Cl)c1Cl` (centres unmarked) [Example 47] reads 1.25 nM. The value for `CCOC(=O)C1=C(COCCNc2nc(N)c3cc(OC)c(OC)cc3n2)NC(C)=C(C(=O)OC)C1c1cccc(Cl)c1Cl` (centres unmarked) [Example 48] was 29.5 nM; that for `CCOC(=O)C1=C(COCCNc2nc3ccccc3nc2Cl)NC(C)=C(C(=O)OC)C1c1cccc(Cl)c1Cl` (centres unmarked) [Example 49] was 3.98 nM; that for `CCOC(=O)C1=C(COCCNc2c[n+]([O-])ccn2)NC(C)=C(C(=O)OC)C1c1cccc(Cl)c1Cl` (centres unmarked) [Example 50, N-oxide of 4-(2,3-dichlorophenyl)-3-ethoxycarbonyl-5-methoxycarbonyl-6-methyl-2-[2-(pyrazin-2-ylamino)ethoxymethyl]-1,4-dihydropyridine] was 1.34 nM.

In the case of `CCOC(=O)C1=C(COCCNc2nccnc2Cl)NC(C)=C(C(=O)OC)C1c1cccc(Cl)c1Cl` (centres unmarked) [Example 51], the IC50 was 2.51 nM. In the case of `CCOC(=O)C1=C(COCCNc2cncc(Cl)n2)NC(C)=C(C(=O)OC)C1c1cccc(Cl)c1Cl` (centres unmarked) [Example 52], the IC50 came out at 6.02 nM.

Consider `CCOC(=O)C1=C(COCCNc2cc(Cl)ncn2)NC(C)=C(C(=O)OC)C1c1cccc(Cl)c1Cl` (centres unmarked) [Example 53], for which the IC50 came out at 3160 nM. The result for `CCOC(=O)C1=C(COCCNc2cc(OC)ncn2)NC(C)=C(C(=O)OC)C1c1cccc(Cl)c1Cl` (centres unmarked) [Example 54] reads 1.2 nM.

Regarding `CCOC(=O)C1=C(COCCNc2nccc(=O)[nH]2)NC(C)=C(C(=O)OC)C1c1cccc(C(F)(F)F)c1Cl` (centres unmarked) [Example 59], the IC50 turned out to be 3.72 nM.

`CCOC(=O)C1=C(COCCNc2cc(=O)[nH]cn2)NC(C)=C(C(=O)OC)C1c1cccc(C(F)(F)F)c1Cl` (centres unmarked) [Example 60]: the IC50 amounted to 44.7 nM.

Consider `CCOC(=O)C1=C(COCCNc2nc(C)cc(=O)[nH]2)NC(C)=C(C(=O)OC)C1c1cccc(C(F)(F)F)c1Cl` (centres unmarked) [Example 61], for which the IC50 was 2.24 nM.

With `CCOC(=O)C1=C(COCCNc2cc[nH]c(=O)n2)NC(C)=C(C(=O)OC)C1c1cccc(C(F)(F)F)c1Cl` (centres unmarked) [Example 62], the IC50 was 1.35 nM. For `CCOC(=O)C1=C(COCCNc2ccc(C(N)=O)cn2)NC(C)=C(C(=O)OC)C1c1cccc(C(F)(F)F)c1Cl` (centres unmarked) [Example 63], the IC50 came to 2.95 nM. For `CCOC(=O)C1=C(COCCNc2n[s+]([O-])nc2OC)NC(C)=C(C(=O)OC)C1c1cccc(Cl)c1Cl` (centres unmarked) [Example 64, 3-{2-[(4-{2,3-Dichlorophenyl}-3-ethoxycarbonyl-5-methoxycarbonyl-6-methyl-1,4-dihydropyrid-2-yl)methoxy]ethylamino}-4-methoxy-1,2,5-thiadiazole-1-oxid], the IC50 amounted to 10 nM. The result for `CCOC(=O)C1=C(COCCNc2n[s+]([O-])nc2OC)NC(C)=C(C(=O)OC)C1c1ccccc1Cl` (centres unmarked) [Example 65] reads 25.1 nM.

For the molecule `CCOC(=O)C1=C(COCCNc2n[s+]([O-])nc2OC)NC(C)=C(C(=O)OC)C1c1cccc(C(F)(F)F)c1Cl` (centres unmarked) [Example 66], the IC50 is 2.24 nM.

In the case of `CCOC(=O)C1=C(COCCNc2n[s+]([O-])nc2N)NC(C)=C(C(=O)OC)C1c1cccc(Cl)c1Cl` (centres unmarked) [Example 67, 3-{2-[(4-{2,3-Dichlorophenyl}-3-ethoxycarbonyl-5-methoxycarbonyl-6-methyl-1,4-dihydropyrid-2-yl)methoxy]ethylamino}-4-amino-1,2,5-thiadiazole-1-oxide hemihydrate], the IC50 is 19.9 nM. The value for `CCOC(=O)C1=C(COCCNc2n[s+]([O-])nc2N)NC(C)=C(C(=O)OC)C1c1ccccc1Cl` (centres unmarked) [Example 68] was 13.1 nM; that for `CCOC(=O)C1=C(COCCNC2=NCCS2)NC(C)=C(C(=O)OC)C1c1ccccc1Cl` (centres unmarked) [Example 70, 4-(2-Chlorophenyl)-3-ethoxycarbonyl-5-methoxycarbonyl-6-methyl-2-[2-(2-thiazolin-2-ylamino)ethoxymethyl]-1,4-dihydropyridine] was 9.33 nM. As for `CCOC(=O)C1=C(COCCNc2nccs2)NC(C)=C(C(=O)OC)C1c1ccccc1Cl` (centres unmarked) [Example 71, 4-(2-Chlorophenyl)-3-ethoxycarbonyl-5-methoxycarbonyl-6-methyl-2-[2-(thiazol-2-ylamino)ethoxymethyl]-1,4-dihydropyridine], the IC50 was 10 nM. The result for `CCOC(=O)C1=C(COCCNc2nc(C)cs2)NC(C)=C(C(=O)OC)C1c1ccccc1Cl` (centres unmarked) [Example 72] reads 39.8 nM; that for `CCOC(=O)C1=C(COCCNc2nc(C(=O)OCC)cs2)NC(C)=C(C(=O)OC)C1c1ccccc1Cl` (centres unmarked) [Example 73], 4.4 nM. With `CCOC(=O)C1=C(COCCNC2=NC(=O)CS2)NC(C)=C(C(=O)OC)C1c1ccccc1Cl` (centres unmarked) [Example 74], the IC50 turned out to be 20 nM.

As for `CCOC(=O)C1=C(COCCNC2=NC(=O)CS2)NC(C)=C(C(=O)OC)C1c1cccc(C(F)(F)F)c1Cl` (centres unmarked) [Example 75], the IC50 was 7.08 nM.

On to `CCOC(=O)C1=C(COCCNc2nc(C(=O)NC)cs2)NC(C)=C(C(=O)OC)C1c1ccccc1Cl` (centres unmarked) [Example 77, 4-(2-Chlorophenyl)-3-ethoxycarbonyl-5-methoxycarbonyl-6-methyl-2-[2-(4-[N-methylcarbamoyl]-thiazol-2-ylamino)ethoxymethyl]-1,4-dihydropyridine], for which the IC50 was determined as 5.37 nM. The value for `CCOC(=O)C1=C(COCCNc2noc(=O)[nH]2)NC(C)=C(C(=O)OC)C1c1cccc(Cl)c1Cl` (centres unmarked) [Example 78, 2-[2-(4,5-Dihydro-5-oxo-1,2,4-oxadiazol-3-ylamino)ethoxymethyl]-4-(2,3-dichlorophenyl)-3-ethoxycarbonyl-5-methoxycarbonyl-6-methyl-1,4-dihydropyridinemonohydrate] was 2.29 nM; that for `CCOC(=O)C1=C(COCCNc2nc(NC(=O)NC)n(C)n2)NC(C)=C(C(=O)OC)C1c1ccccc1Cl` (centres unmarked) [Example 79, hydrate] was 6.6 nM. `CCOC(=O)C1=C(COCCNc2cc(N3CCOCC3)ncn2)NC(C)=C(C(=O)OC)C1c1cccc(Cl)c1Cl` (centres unmarked) [Example 80, 4-(2,3-Dichlorophenyl)-3-ethoxycarbonyl-5-methoxycarbonyl-6-methyl-[2-(6-morpholinopyrimidin-4-ylamino)ethoxymethyl]-1,4-dihydropyridine]: the IC50 was 1.34 nM. The value for `CCOC(=O)C1=C(COCCNc2cc(N3CCN(C)CC3)ncn2)NC(C)=C(C(=O)OC)C1c1cccc(Cl)c1Cl` (centres unmarked) [Example 81] was 3.16 nM; that for `CCOC(=O)C1=C(COCCNc2cc(N3CCCCC3)ncn2)NC(C)=C(C(=O)OC)C1c1cccc(Cl)c1Cl` (centres unmarked) [Example 82] was 4.07 nM; that for `CCOC(=O)C1=C(COCCNc2cc(NC)ncn2)NC(C)=C(C(=O)OC)C1c1cccc(Cl)c1Cl` (centres unmarked) [Example 83] was 3.16 nM. The result for `CCOC(=O)C1=C(COCCNc2nccnc2NC)NC(C)=C(C(=O)OC)C1c1cccc(Cl)c1Cl` (centres unmarked) [Example 84] reads 5.01 nM.
